Drawing on patent publication US10383880B2 (Reset Therapeutics, Inc., priority 2012, dated 2019), this text covers EC50 for 37 compounds.

The subject of the first experiment is Per2-dLuc U2OS reporter cells. The experiment is described as follows: Per2 assay for evaluating the potency of test compounds (high-throughput circadian assay). The settings on record: Homo sapiens, U2OS, stable U2OS reporter cells harboring Per2-dLuc; luminescence monitored over 4-5 days at 35° C. Type of experiment: cell-based. The gist of the method: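 After 24 h culture, U2OS cells carrying Per2-dLuc were serum-shock synchronized into explant medium with 1.0 mM luciferin (10 mM HEPES pH 7.0) and compound in 0.5% DMSO. Luminescence was recorded over 4–5 days at 35 °C. Circadian period, amplitude and phase were derived, and EC50 calculated.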
With `COC1CCS(=O)(=O)N(CC(O)Cn2c3ccc(F)cc3c3cc(F)ccc32)C1` (stereo not shown) [Compound 155, N-(3-(3,6-Difluoro-9H-carbazol-9-yl)-2-hydroxypropyl)-4-methoxy-1,2-thiazinane-1,1-dioxide], the concentration giving a half-maximal response (EC50) amounted to 324 nM.

With `CS(=O)(=O)N(CC(O)Cn1c2ccc(F)cc2c2ccc(F)cc21)C1CCC1` (stereo not shown) [Compound 166, N-Cyclobutyl-N-(3-(2,6-difluoro-9H-carbazol-9-yl)-2-hydroxypropyl)methanesulfonamide], a half-maximal response (EC50) required 147 nM. Take `CCOCc1ccc(N(CC(O)Cn2c3ccc(F)cc3c3cc(F)ccc32)S(C)(=O)=O)cc1` (stereo not shown) [Compound 208, N-(3-(3,6-Difluoro-9H-carbazol-9-yl)-2-hydroxypropyl)-N-(4-(ethoxymethyl)phenyl)methanesulfonamide]: the response was half-maximal at 4710 nM (EC50). On the same count and under the same terms, the result for `CCN(CC(O)Cn1c2ccc(F)cc2c2cc(F)ccc21)S(C)(=O)=O` (stereo not shown) [Compound 156, N-(3-(3,6-ifluoro-9H-carbazol-9-yl)-2-hydroxypropyl)-N-ethylmethanesulfonamide] reads 471 nM; that for `O=S1(=O)CCCCN1CC(O)Cn1c2ccc(F)cc2c2cc(F)ccc21` (stereo not shown) [Compound 86, N-(3-(3,6-Difluoro-9H-carbazol-9-yl)-2-hydroxypropyl)-1,2-thiazinane 1,1-dioxide], 46 nM; that for `O=S1(=O)CCCN1CC(O)Cn1c2ccccc2c2ccccc21` (stereo not shown) [Compound 20, N-(3-(9H-Carbazol-9-yl)-2-hydroxypropyl)isothiazolidine 1,1-dioxide], 29 nM. `COCCCS(=O)(=O)N(Cc1ccco1)CC(O)Cn1c2ccccc2c2ccccc21` (stereo not shown) [Compound 9, N-(3-(9H-Carbazol-9-yl)-2-hydroxypropyl)-N-(furan-2-ylmethyl)-3-methoxypropane-1-sulfonamide] showed an EC50 of 2860 nM. As for `O=S(=O)(CC1CCCO1)N(Cc1ccco1)CC(O)Cn1c2ccccc2c2ccccc21` (stereo not shown) [Compound 19, N-(3-(9H-Carbazol-9-yl)-2-hydroxypropyl)-N-(furan-2-ylmethyl)-1-(tetrahydrofuran-2-yl)methanesulfonamide], the midpoint of the response, the EC50, lay at 2100 nM. With `CN(CC(O)Cn1c2ccc(F)cc2c2c(F)cccc21)S(C)(=O)=O` (stereo not shown) [Compound 110, N-(3-(3,5-Difluoro-9H-carbazol-9-yl)-2-hydroxypropyl)-N-methylmethanesulfonamide], the EC50 was 3630 nM. Consider `CCCN(CC(O)Cn1c2ccc(F)cc2c2ccc(F)cc21)S(C)(=O)=O` (stereo not shown) [Compound 163, N-(3-(2,6-Difluoro-9H-carbazol-9-yl)-2-hydroxypropyl)-N-propylmethanesulfonamide], for which the EC50 was 206 nM. Regarding `CC(O)(CN1CCNS1(=O)=O)Cn1c2ccc(F)cc2c2cc(F)ccc21` (stereo not shown) [Compound 176], it took 125 nM to reach a half-maximal effect (EC50). Still for that read-out and setting: the result for `CS(=O)(=O)N(CC(O)Cn1c2ccccc2c2ccccc21)C1CC2CCC1O2` (single isomer, unassigned) [Compound 140A, N-(3-(9H-Carbazol-9-yl)-2-hydroxypropyl)-N-(7-oxabicyclo[2.2.1]heptan-2-yl)methanesulfonamide] reads 503 nM; that for `CC(O)(CN(c1ccccc1)S(C)(=O)=O)Cn1c2ccc(F)cc2c2cc(F)ccc21` (stereo not shown) [Compound 215, N-(3-(3,6-Difluoro-9H-carbazol-9-yl)-2-hydroxy-2-methylpropyl)-N-phenylmethanesulfonamide], 7880 nM; that for `CC(C)N(CC(O)Cn1c2ccccc2c2ccccc21)S(C)(=O)=O` (stereo not shown) [Compound 46, N-(3-(9H-Carbazol-9-yl)-2-hydroxypropyl)-N-isopropylmethanesulfonamide], 100 nM. Turning to `O=S1(=O)c2ccccc2CN1CC(O)Cn1c2ccccc2c2ccccc21` (stereo not shown) [Compound 34, N-(3-(9H-Carbazol-9-yl)-2-hydroxypropyl)-2,3-dihydrobenzo[d]isothiazole 1,1-dioxide], the EC50 turned out to be 31 nM. The same measure, in the same setting: the result for `COC(=O)N1CCC(N(CC(O)Cn2c3ccccc3c3ccccc32)S(C)(=O)=O)CC1` (stereo not shown) [Compound 129, Methyl 4-(N-(3-(9H-carbazol-9-yl)-2-hydroxypropyl)methylsulfonamido)piperidine-1-carboxylate] reads 386 nM. For `CC(O)(CN(C1(C)CCCC1)S(C)(=O)=O)Cn1c2ccc(F)cc2c2cc(F)ccc21` (stereo not shown) [Compound 197, N-(3-(3,6-Difluoro-9H-carbazol-9-yl)-2-hydroxy-2-methylpropyl)-N-(1-methylcyclopentyl)methanesulfonamide], the EC50 stood at 873 nM. On to `CC(O)(CN1CCN(C2CCC2)S1(=O)=O)Cn1c2ccc(F)cc2c2cc(F)ccc21` (stereo not shown) [Compound 235], for which the EC50 turned out to be 6460 nM.

`CCc1ccc(N(CC(O)Cn2c3ccc(F)cc3c3cc(F)ccc32)S(C)(=O)=O)cc1` (stereo not shown) [Compound 201, N-(3-(3,6-Difluoro-9H-carbazol-9-yl)-2-hydroxypropyl)-N-(4-ethylphenyl)methanesulfonamide] displayed a 50% effective concentration (EC50) of 1570 nM. `CN(CC(O)Cn1c2ccc(F)cc2c2cc(F)ccc21)S(C)(=O)=O` (stereo not shown) [Compound 89, N-(3-(3,6-Difluoro-9H-carbazol-9-yl)-2-hydroxypropyl)-N-methylmethanesulfonamide] showed an EC50 of 360 nM. Same read-out and setting: the result for `CC(C)CN(CC(O)Cn1c2ccccc2c2ccccc21)S(C)(=O)=O` (stereo not shown) [Compound 49, N-(3-(9H-Carbazol-9-yl)-2-hydroxypropyl)-N-isobutylmethanesulfonamide] reads 100 nM. With `COC1CN(CC(O)Cn2c3ccc(F)cc3c3cc(F)ccc32)S(=O)(=O)C1` (stereo not shown) [Compound 181, 2-(3-(3,6-Difluoro-9H-carbazol-9-yl)-2-hydroxypropyl)-4-methoxyisothiazolidine-1,1-dioxide], the EC50 was found to be 174 nM.

`CS(=O)(=O)N(CC(O)Cn1c2ccccc2c2ccccc21)C1CCc2ccccc21` (single isomer, unassigned) [Compound 61, N-(3-(9H-Carbazol-9-yl)-2-hydroxypropyl)-N-(2,3-dihydro-1H-inden-1-yl)methanesulfonamide]: the EC50 was found to be 4470 nM. Same read-out and setting: the result for `O=S1(=O)CCCN1CC(O)Cn1c2ccc(F)cc2c2cc(F)ccc21` (stereo not shown) [Compound 87, N-(3-(3,6-Difluoro-9H-carbazol-9-yl)-2-hydroxypropyl)-isothiazolidine-1,1-dioxide] reads 20 nM; that for `O=S1(=O)N(CC(O)Cn2c3ccc(F)cc3c3cc(F)ccc32)CCCN1C1CCC1` (stereo not shown) [Compound 228, 2-(3-(3,6-Difluoro-9H-carbazol-9-yl)-2-hydroxypropyl)-6-cyclobutyl-1,2,6-thiadiazinane-1,1-dioxide], 3420 nM; that for `CS(=O)(=O)N(CC(O)Cn1c2ccccc2c2ccccc21)c1ccon1` (stereo not shown) [Compound 81, N-(3-(9H-Carbazol-9-yl)-2-hydroxypropyl)-N-(isoxazol-3-yl)methanesulfonamide], 964 nM. Still for that read-out and setting: the result for `CS(=O)(=O)N(CC(O)Cn1c2ccccc2c2ccccc21)c1ccccc1Cl` (stereo not shown) [Compound 77, N-(3-(9H-Carbazol-9-yl)-2-hydroxypropyl)-N-(2-chlorophenyl)methanesulfonamide] reads 750 nM; that for `CS(=O)(=O)N(Cc1ccco1)CC(O)Cn1c2cc(F)ccc2c2ccc(F)cc21` (stereo not shown) [Compound 93, N-(3-(2,7-Difluoro-9H-carbazol-9-yl)-2-hydroxypropyl)-N-(furan-2-ylmethyl)methanesulfonamide], 2890 nM; that for `CC(C)(C(O)Cn1c2ccccc2c2ccccc21)N1CCCS1(=O)=O` (stereo not shown) [Compound 243, 2-(4-(9H-Carbazol-9-yl)-3-hydroxy-2-methylbutan-2-yl)-isothiazolidine-1,1-dioxide], 42 nM. Same read-out and setting: the result for `CS(=O)(=O)N(CC(O)Cn1c2ccccc2c2ccccc21)C1(C#N)CC1` (stereo not shown) [Compound 125, N-(3-(9H-Carbazol-9-yl)-2-hydroxypropyl)-N-(1-cyanocyclopropyl)methanesulfonamide] reads 2610 nM; that for `CS(=O)(=O)NCC(O)Cn1c2ccc(F)cc2c2ccc(F)cc21` (stereo not shown) [Compound 168, N-(3-(2,6-Difluoro-9H-carbazol-9-yl)-2-hydroxypropyl)methanesulfonamide], 391 nM; that for `O=S1(=O)CCCCN1C[C@H](O)Cn1c2ccccc2c2ccccc21` [Compound 41, (R)-N-(3-(9H-Carbazol-9-yl)-2-hydroxypropyl)-1,2-thiazinane 1,1-dioxide], 343 nM. Consider `CC1CCCCC1N(CC(O)Cn1c2ccccc2c2ccccc21)S(C)(=O)=O` (single isomer, unassigned) [Compound 127, N-(3-(9H-Carbazol-9-yl)-2-hydroxypropyl)-N-(2-methylcyclohexyl)methanesulfonamide], for which a half-maximal effect (EC50) was put at 4010 nM. `CC(O)(CN1CCCN(C2CCCCC2)S1(=O)=O)Cn1c2ccc(F)cc2c2cc(F)ccc21` (stereo not shown) [Compound 223, 2-(3-(3,6-Difluoro-9H-carbazol-9-yl)-2-hydroxy-2-methylpropyl)-6-cyclohexyl-1,2,6-thiadiazinane-1,1-dioxide] registered an EC50 of 6790 nM. For `CC(O)(CN(Cc1ccco1)S(C)(=O)=O)Cn1c2ccccc2c2ccccc21` (stereo not shown) [Compound 240, N-(3-(9H-Carbazol-9-yl)-2-hydroxy-2-methylpropyl)-N-(furan-2-yl-methyl)methane-sulfonamide], a half-maximal effect (EC50) was put at 1060 nM.

As to `CS(=O)(=O)N(Cc1ccco1)CC(O)Cn1c2ccccc2c2cc(F)ccc21` (stereo not shown) [Compound 238, N-(3-(3-Fluoro-9H-carbazol-9-yl)-2-hydroxy-propyl)-N-(furan-2-yl-methyl)methane-sulfonanide], a half-maximal effect (EC50) was put at 535 nM.

Still in this experiment, the particulars now being: stable U2OS reporter cells harboring Per2-dLuc; luminescence monitored over 4-5 days at 35° C.
Compound `CC1CCCC1N(CC(O)Cn1c2ccc(F)cc2c2cc(F)ccc21)S(C)(=O)=O` (single isomer, unassigned) [Compound 193C, N-(3-(3,6-Difluoro-9H-carbazol-9-yl)-2-hydroxypropyl)-N-(2-methylcyclopentyl)methanesulfonamide] had an EC50 of 4470 nM.
